PubChem BioAssay (NCI)
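Tested at 5 concentrations; 48 h exposure; 96-well plates; endpoints linearly interpolated, else capped at highest concentration. TGI marks complete inhibition of growth.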

How the values were obtained:
Test in all cases: DTP human tumour cell line panel, 48 h
[1] = tested on: 786-0 renal
[2] = tested on: A498 renal
[3] = tested on: A549 NSCLC
[4] = tested on: ACHN renal
[5] = tested on: BT-549 breast
[6] = tested on: CAKI-1 renal
[7] = tested on: CCRF-CEM leukemia
[8] = tested on: COLO 205 colon
[9] = tested on: DU-145 prostate
[10] = tested on: HCT-116 colon
[11] = tested on: HCT-15 colon
[12] = tested on: HL-60(TB) leukemia
[13] = tested on: HOP-62 NSCLC
[14] = tested on: HOP-92 NSCLC
[15] = tested on: HS 578T breast
[16] = tested on: HT29 colon
[17] = tested on: IGROV1 ovarian
[18] = tested on: K-562 leukemia
[19] = tested on: KM12 colon
[20] = tested on: LOX IMVI melanoma
[21] = tested on: M14 melanoma
[22] = tested on: MALME-3M melanoma
[23] = tested on: MCF7 breast
[24] = tested on: MDA-MB-231 breast
[25] = tested on: MDA-MB-435
[26] = tested on: MDA-N
[27] = tested on: MOLT-4 leukemia
[28] = tested on: NCI-H226 lung
[29] = tested on: NCI-H23 lung
[30] = tested on: NCI-H460 lung
[31] = tested on: NCI-H522 lung
[32] = tested on: NCI/ADR-RES ovarian
[33] = tested on: OVCAR-3 ovarian
[34] = tested on: OVCAR-5 ovarian
[35] = tested on: OVCAR-8 ovarian
[36] = tested on: PC-3 prostate
[37] = tested on: SF-268 CNS
[38] = tested on: SF-295 CNS
[39] = tested on: SF-539 CNS
[40] = tested on: SK-MEL-2 melanoma
[41] = tested on: SK-MEL-28 melanoma
[42] = tested on: SK-MEL-5 melanoma
[43] = tested on: SK-OV-3 ovarian
[44] = tested on: SN12C renal
[45] = tested on: SNB-19 CNS
[46] = tested on: SNB-75 CNS
[47] = tested on: SR leukemia
[48] = tested on: SW-620 colon
[49] = tested on: T-47D breast
[50] = tested on: TK-10 renal
[51] = tested on: U251 CNS
[52] = tested on: UACC-257 melanoma
[53] = tested on: UACC-62 melanoma
[54] = tested on: UO-31 renal
[55] = tested on: EKVX NSCLC
[56] = tested on: HCC-2998 colon
[57] = tested on: OVCAR-4 ovarian
[58] = tested on: RPMI-8226 leukemia
[59] = tested on: RXF 393 renal

O=C(NC(=S)Nc1ccc([N+](=O)[O-])cc1)c1ccc2c(c1)Sc1ccccc1O2
TGI [1]: > 100 µM
TGI [2]: > 100 µM
TGI [3]: > 100 µM
TGI [4]: > 100 µM
TGI [5]: > 100 µM
TGI [6]: > 100 µM
TGI [7]: > 100 µM
TGI [8]: > 100 µM
TGI [9]: > 100 µM
TGI [10]: > 100 µM
TGI [11]: > 100 µM
TGI [12]: > 100 µM
TGI [13]: > 100 µM
TGI [14]: > 100 µM
TGI [15]: 79 µM
TGI [16]: > 100 µM
TGI [17]: > 100 µM
TGI [18]: > 100 µM
TGI [19]: > 100 µM
TGI [20]: > 100 µM
TGI [21]: > 100 µM
TGI [22]: > 100 µM
TGI [23]: > 100 µM
TGI [24]: > 100 µM
TGI [25]: > 100 µM
TGI [26]: > 100 µM
TGI [27]: > 100 µM
TGI [28]: > 100 µM
TGI [29]: > 100 µM
TGI [30]: > 100 µM
TGI [31]: > 100 µM
TGI [32]: > 100 µM
TGI [33]: > 100 µM
TGI [34]: > 100 µM
TGI [35]: > 100 µM
TGI [36]: > 100 µM
TGI [37]: > 100 µM
TGI [38]: > 100 µM
TGI [39]: > 100 µM
TGI [40]: > 100 µM
TGI [41]: > 100 µM
TGI [42]: > 100 µM
TGI [43]: > 100 µM
TGI [44]: > 100 µM
TGI [45]: > 100 µM
TGI [46]: 29.6 µM
TGI [47]: > 100 µM
TGI [48]: > 100 µM
TGI [49]: > 100 µM
TGI [50]: > 100 µM
TGI [51]: > 100 µM
TGI [52]: > 100 µM
TGI [53]: > 100 µM
TGI [54]: > 100 µM

CCOP(=O)(CCCC(O)CNc1nc(N)nc(Cl)c1N=Nc1ccc(Cl)cc1)OCC (configuration not stated)
TGI [1]: 17.9 µM
TGI [2]: 20.7 µM
TGI [3]: 23.9 µM
TGI [4]: 15.4 µM
TGI [5]: 20.8 µM
TGI [6]: 13.9 µM
TGI [7]: 9.92 µM
TGI [8]: 20.4 µM
TGI [9]: 18.2 µM
TGI [55]: 15.5 µM
TGI [56]: 30.6 µM
TGI [10]: 21.7 µM
TGI [11]: 20.2 µM
TGI [12]: 4.19 µM
TGI [13]: 24.8 µM
TGI [14]: 25.8 µM
TGI [15]: 30.3 µM
TGI [16]: 23.4 µM
TGI [17]: 26.1 µM
TGI [18]: 16 µM
TGI [19]: 25 µM
TGI [20]: 13.8 µM
TGI [22]: 20.9 µM
TGI [23]: 27 µM
TGI [24]: 8.6 µM
TGI [25]: 19 µM
TGI [26]: 18.8 µM
TGI [27]: 11.8 µM
TGI [28]: 22.1 µM
TGI [29]: 28 µM
TGI [30]: 37 µM
TGI [31]: 17 µM
TGI [32]: 31 µM
TGI [33]: 18.4 µM
TGI [57]: 17.6 µM
TGI [34]: 25.5 µM
TGI [35]: 22.9 µM
TGI [36]: 16.7 µM
TGI [58]: 8.23 µM
TGI [59]: 18.5 µM
TGI [37]: 18.1 µM
TGI [38]: 21.7 µM
TGI [39]: 23 µM
TGI [40]: 27.3 µM
TGI [41]: 20.8 µM
TGI [42]: 15.5 µM
TGI [43]: 19.2 µM
TGI [44]: 18.2 µM
TGI [45]: 22.8 µM
TGI [46]: 11.1 µM
TGI [47]: 6.82 µM
TGI [48]: 36.5 µM
TGI [49]: 23.2 µM
TGI [50]: 13.6 µM
TGI [51]: 22.7 µM
TGI [52]: 18.1 µM
TGI [53]: 19.1 µM
TGI [54]: 16.1 µM
